The results in this text go back to ChEMBL document CHEMBL1157840, “Synthesis and the selective antifungal activity of 5,6,7,8-tetrahydroimidazo[1,2-a]pyridine derivatives” (Eur J Med Chem, 2010).

Broadly, the MIC is the least concentration at which growth counts as inhibited.

The subject of one series is Cyberlindnera jadinii. Description: Antifungal activity against Candida utilis NRRL Y-900 after 24 hrs by broth microdilution assay. Type of series: functional. Particulars: Williopsis jadinii, NRRL Y-900, 24 h. Background: Dilution methods test growth across graded concentrations, often in twofold steps.
For a further series, the system named is SK-MEL. The series can be described thus: Cytotoxicity against human SK-MEL cells up to 25 ug/ml after 48 hrs by neutral red assay. The format is cell-based.
The next series concerns Vero. Description: Cytotoxicity against african green monkey Vero cells up to 25 ug/ml after 48 hrs by neutral red assay. Type of series: cell-based. To be noted: chlorocebus sabaeus.
The next series relates to Pichia kudriavzevii. The series can be described thus: Antifungal activity against Candida krusei NRRL Y-7179 after 24 hrs by broth microdilution assay. To be noted: NRRL Y-7179, 24 h. Type of series: functional.
Another series concerns Candida parapsilosis. The series can be described thus: Antifungal activity against Candida parapsilosis NRRL Y-12696 after 24 hrs by broth microdilution assay. The format is functional. To be noted: Lodderomyces parapsilosis, NRRL Y-12696, 24 h.
For series [1], the system named is Candida albicans. The series can be described thus: Antifungal activity against Candida albicans clinical isolate after 24 hrs by broth microdilution assay. The format is functional.
The subject of series [2] is Nakaseomyces glabratus. Description: Antifungal activity against Candida glabrata clinical isolate 2 after 24 hrs by broth microdilution assay. Type of series: functional.
Series [3] deals with Candida albicans. Description: Antifungal activity against Candida albicans ATCC 90028 after 24 hrs by broth microdilution assay. Type of series: functional. Particulars: ATCC 90028, 24 h.
Series [4] relates to Candida albicans. Description: Antifungal activity against Candida albicans NRRL Y-12983 after 24 hrs by broth microdilution assay. Type of series: functional. Particulars: NRRL Y-12983, 24 h.
For series [5], the system named is Nakaseomyces glabratus. The series can be described thus: Antifungal activity against Candida glabrata clinical isolate 1 after 24 hrs by broth microdilution assay. Type of series: functional. Particulars: isolate 1, 24 h.
A further series concerns BT-549. Description: Cytotoxicity against human BT549 cells up to 25 ug/ml after 48 hrs by neutral red assay. To be noted: bt-549, 48 h. Type of series: cell-based.
The subject of a further series is Candida tropicalis. Description: Antifungal activity against Candida tropicalis NRRL Y-12968 after 24 hrs by broth microdilution assay. Type of series: functional. Particulars: NRRL Y-12968, 24 h.
In the next series the test system is SK-OV-3. The series can be described thus: Cytotoxicity against human SKOV3 cells up to 25 ug/ml after 48 hrs by neutral red assay. Particulars: sk-ov-3, 48 h. The format is cell-based.
A further series has as its system [Candida] zeylanoides. Description: Antifungal activity against Candida zeylanoides NRRL Y-1774 after 24 hrs by broth microdilution assay. Type of series: functional. To be noted: Dujonia zeylanoides, NRRL Y-1774, 24 h.
Series [6] can be described thus: Cytotoxicity against african pig LLC-PK11 up to 25 ug/ml after 48 hrs by neutral red assay. Also on record: species or system Sus scrofa.

Structures are written as SMILES. Values after ≈ are worked out from the molar mass of the structure shown. Some results are limits rather than exact numbers.

For `Cc1ccc(/C=N/NC(=O)c2cn3c(n2)CCCC3)cc1`, the MIC in the series on Cyberlindnera jadinii was more than 0.25 mg/L; against Pichia kudriavzevii, more than 0.25 mg/L; in the series on Candida parapsilosis, 0.5 mg/L (≈ 1.77 µM); in the series on Candida albicans [1], 0.032 mg/L (≈ 0.113 µM); against Nakaseomyces glabratus [2], more than 0.25 mg/L; with Candida albicans [3], more than 0.25 mg/L. The minimal inhibitory concentration (MIC) is more than 0.25 mg/L in the series with Candida albicans [4], more than 0.25 mg/L against Nakaseomyces glabratus [5], 0.125 mg/L (≈ 0.443 µM) against Candida tropicalis and more than 0.25 mg/L in [Candida] zeylanoides. The Activity entry (in the series with SK-MEL; in the series with Vero; with BT-549; in the series with SK-OV-3; in [6]) was “Non-toxic” throughout.

Consider `CC(C)c1ccc(/C=N/NC(=O)c2cn3c(n2)CCCC3)cc1`, for which the MIC was more than 0.25 mg/L in the series with Cyberlindnera jadinii; more than 0.25 mg/L with Pichia kudriavzevii; more than 0.25 mg/L against Candida parapsilosis; 0.125 mg/L (≈ 0.403 µM) in the series on Candida albicans [1]; 0.5 mg/L (≈ 1.61 µM) in the series with Nakaseomyces glabratus [2]; more than 0.25 mg/L against Candida albicans [3]. For the same compound, the minimal inhibitory concentration (MIC) in the series with Candida albicans [4] was more than 0.25 mg/L; in the series on Nakaseomyces glabratus [5] it was more than 0.25 mg/L; in the series on Candida tropicalis, 0.125 mg/L (≈ 0.403 µM); in [Candida] zeylanoides, more than 0.25 mg/L. In addition, the Activity result (in the series on SK-MEL; in the series with Vero; in the series with BT-549; in the series with SK-OV-3; in [6]) was “Non-toxic” in each case.

Take `O=C(N/N=C/c1ccc([N+](=O)[O-])cc1)c1cn2c(n1)CCCC2`: the MIC in the series on Cyberlindnera jadinii was found to be 0.5 mg/L (≈ 1.6 µM); in the series with Pichia kudriavzevii it was 0.5 mg/L (≈ 1.6 µM); with Candida parapsilosis it was 0.25 mg/L (≈ 0.798 µM); with Candida albicans [1] it was 0.125 mg/L (≈ 0.399 µM); with Nakaseomyces glabratus [2], 0.25 mg/L (≈ 0.798 µM); against Candida albicans [3], 0.5 mg/L (≈ 1.6 µM). Further, the MIC in the series with Candida albicans [4] was found to be 0.25 mg/L (≈ 0.798 µM); in the series with Nakaseomyces glabratus [5] it was 0.5 mg/L (≈ 1.6 µM); with Candida tropicalis, 0.25 mg/L (≈ 0.798 µM); in series [Candida] zeylanoides it was 0.25 mg/L (≈ 0.798 µM). In addition, the Activity result (with SK-MEL; in the series on Vero; in the series on BT-549; in the series on SK-OV-3; in series [6]) was “Non-toxic” in each case.

As to `CN(C)c1ccc(/C=N/NC(=O)c2cn3c(n2)CCCC3)cc1`, the MIC was more than 0.25 mg/L against Cyberlindnera jadinii; more than 0.25 mg/L against Pichia kudriavzevii; more than 0.25 mg/L against Candida parapsilosis; 0.125 mg/L (≈ 0.401 µM) with Candida albicans [1]; more than 0.25 mg/L in the series on Nakaseomyces glabratus [2]; more than 0.25 mg/L with Candida albicans [3]. Moreover, the MIC with Candida albicans [4] was more than 0.25 mg/L; against Nakaseomyces glabratus [5] it was more than 0.25 mg/L; against Candida tropicalis it was 0.125 mg/L (≈ 0.401 µM); in series [Candida] zeylanoides, more than 0.25 mg/L. The Activity result (with SK-MEL; in the series on Vero; in the series with BT-549; in the series with SK-OV-3; in [6]) was “Non-toxic” in each case.

On to `O=C(N/N=C/c1ccc(Br)cc1)c1cn2c(n1)CCCC2`, for which the MIC was 1 mg/L (≈ 2.88 µM) against Cyberlindnera jadinii; 0.25 mg/L (≈ 0.72 µM) with Pichia kudriavzevii; 1 mg/L (≈ 2.88 µM) in the series with Candida parapsilosis; 1 mg/L (≈ 2.88 µM) against Candida albicans [1]; 0.25 mg/L (≈ 0.72 µM) in the series on Nakaseomyces glabratus [2]; 0.5 mg/L (≈ 1.44 µM) with Candida albicans [3]. In addition, the minimum inhibitory concentration (MIC) in the series with Candida albicans [4] was 0.125 mg/L (≈ 0.36 µM); against Nakaseomyces glabratus [5], 0.5 mg/L (≈ 1.44 µM); against Candida tropicalis it was 0.5 mg/L (≈ 1.44 µM); in series [Candida] zeylanoides, 1 mg/L (≈ 2.88 µM). The Activity entry (with SK-MEL; in the series with Vero; in the series on BT-549; with SK-OV-3; in series [6]) was “Non-toxic” in each case.

Take `O=C(N/N=C/c1ccc(Cl)cc1)c1cn2c(n1)CCCC2`: the minimum inhibitory concentration (MIC) in the series on Cyberlindnera jadinii is more than 0.25 mg/L; in the series on Pichia kudriavzevii, more than 0.25 mg/L; against Candida parapsilosis, 0.5 mg/L (≈ 1.65 µM); against Candida albicans [1] it was 0.125 mg/L (≈ 0.413 µM); against Nakaseomyces glabratus [2], 0.125 mg/L (≈ 0.413 µM); against Candida albicans [3], 0.5 mg/L (≈ 1.65 µM). The MIC with Candida albicans [4] was 0.5 mg/L (≈ 1.65 µM); in the series with Nakaseomyces glabratus [5] it was more than 0.25 mg/L; against Candida tropicalis it was more than 0.25 mg/L; in series [Candida] zeylanoides it was more than 0.25 mg/L. For the same compound, the Activity result (in the series on SK-MEL; with Vero; in the series on BT-549; in the series with SK-OV-3; in [6]) was “Non-toxic” throughout.

On to `O=C(N/N=C/c1ccc2c(c1)OCO2)c1cn2c(n1)CCCC2`, for which the MIC in the series on Cyberlindnera jadinii was 0.125 mg/L (≈ 0.4 µM); in the series with Pichia kudriavzevii, more than 0.25 mg/L; against Candida parapsilosis, more than 0.25 mg/L; against Candida albicans [1], 0.063 mg/L (≈ 0.202 µM); with Nakaseomyces glabratus [2], more than 0.25 mg/L; against Candida albicans [3], more than 0.25 mg/L. In addition, the MIC against Candida albicans [4] is more than 0.25 mg/L; in the series on Nakaseomyces glabratus [5] it was more than 0.25 mg/L; in the series with Candida tropicalis, 0.125 mg/L (≈ 0.4 µM); in series [Candida] zeylanoides it was more than 0.25 mg/L. The Activity result (with SK-MEL; with Vero; in the series on BT-549; with SK-OV-3; in [6]) was “Non-toxic” each time.

For the compound `N#Cc1ccc(/C=N/NC(=O)c2cn3c(n2)CCCC3)cc1`, the MIC against Cyberlindnera jadinii is 0.032 mg/L (≈ 0.109 µM); against Pichia kudriavzevii, less than 0.016 mg/L; with Candida parapsilosis it was 0.032 mg/L (≈ 0.109 µM); against Candida albicans [1], 0.032 mg/L (≈ 0.109 µM); with Nakaseomyces glabratus [2], 0.032 mg/L (≈ 0.109 µM); in the series with Candida albicans [3] it was 0.063 mg/L (≈ 0.215 µM). Besides, the MIC with Candida albicans [4] was 0.032 mg/L (≈ 0.109 µM); with Nakaseomyces glabratus [5] it was 0.032 mg/L (≈ 0.109 µM); against Candida tropicalis, less than 0.016 mg/L; in [Candida] zeylanoides, 0.032 mg/L (≈ 0.109 µM). The Activity result (in the series on SK-MEL; in the series with Vero; in the series with BT-549; with SK-OV-3; in [6]) was “Non-toxic” throughout.

Take `Clc1ccccc1C(c1ccccc1)(c1ccccc1)n1ccnc1` [CLOTRIMAZOLE]: the minimum inhibitory concentration (MIC) in the series with Cyberlindnera jadinii, in the series on Pichia kudriavzevii, with Candida parapsilosis, in the series with Candida albicans [1], against Nakaseomyces glabratus [2] and in the series with Candida albicans [3] was less than 0.08 mg/L each time. For the same compound, the MIC in the series with Candida albicans [4] was less than 0.08 mg/L; in the series on Nakaseomyces glabratus [5] it was less than 0.08 mg/L; in the series with Candida tropicalis, 0.032 mg/L (≈ 0.0928 µM); in series [Candida] zeylanoides it was 0.125 mg/L (≈ 0.362 µM). The Activity entry (in the series on SK-MEL; with Vero; in the series on BT-549; in the series on SK-OV-3; in [6]) was “Non-toxic” throughout.

Turning to `COC1=CC(=O)C[C@@H](C)[C@]12Oc1c(Cl)c(OC)cc(OC)c1C2=O` [GRISEOFULVIN], the MIC against Cyberlindnera jadinii worked out at 0.5 mg/L (≈ 1.42 µM); with Pichia kudriavzevii, 0.25 mg/L (≈ 0.709 µM); in the series on Candida parapsilosis, 0.5 mg/L (≈ 1.42 µM); in the series with Candida albicans [1], 0.25 mg/L (≈ 0.709 µM); with Nakaseomyces glabratus [2], 0.125 mg/L (≈ 0.354 µM); against Nakaseomyces glabratus [5], 0.25 mg/L (≈ 0.709 µM). Besides, the minimal inhibitory concentration (MIC) against Candida tropicalis amounted to 0.125 mg/L (≈ 0.354 µM); in [Candida] zeylanoides, 0.5 mg/L (≈ 1.42 µM). The Activity entry (in the series with SK-MEL; with Vero; in the series on BT-549; in the series on SK-OV-3; in [6]) was “Non-toxic” throughout.

In the case of `CC(=O)N1CCN(c2ccc(OCC3COC(Cn4ccnc4)(c4ccc(Cl)cc4Cl)O3)cc2)CC1` (stereo not drawn) [KETOCONAZOLE], the MIC turned out to be 0.125 mg/L (≈ 0.235 µM) in the series on Cyberlindnera jadinii; 0.125 mg/L (≈ 0.235 µM) in the series on Pichia kudriavzevii; 0.032 mg/L (≈ 0.0602 µM) against Candida parapsilosis; 0.063 mg/L (≈ 0.119 µM) in the series with Candida albicans [1]; 0.032 mg/L (≈ 0.0602 µM) in the series with Nakaseomyces glabratus [2]; 0.063 mg/L (≈ 0.119 µM) in the series with Candida albicans [3]. The minimal inhibitory concentration (MIC) was determined as 0.032 mg/L (≈ 0.0602 µM) in the series with Candida albicans [4], 0.125 mg/L (≈ 0.235 µM) in the series with Nakaseomyces glabratus [5], 0.125 mg/L (≈ 0.235 µM) against Candida tropicalis and 0.5 mg/L (≈ 0.941 µM) in series [Candida] zeylanoides. Besides, the Activity result (in the series on SK-MEL; with Vero; with BT-549; in the series on SK-OV-3; in series [6]) was “Non-toxic” each time.
